# According to patent US10441663B2, “Methods for treating cancer” (Bicycle Therapeutics Limited, priority 2016, dated 2019):
# *1 amine or outer side, *2 acyl side, *3 side chain or, on linkers, in order; H or OH if unused. Where a SMILES comes first, the peptide text is derived from it. Bridges are numbered along the chain shown (N, C = ends). [ ]: non-standard residue; d: D form. The star is where a group is joined. X1 = COc1cc2cc(c1Cl)N(C)C(=O)C[C@H](OC(=O)[C@H](C)N(C)C(=O)CCSSC(C)CCC(=O)*)[C@]1(C)O[C@H]1[C@H](C)[C@@H]1C[C@@](O)(NC(=O)O1)[C@H](OC)/C=C/C=C(\C)C2; 1Nal = N[C@@H](Cc1cccc2ccccc12)C(=O)O; TBMB = c1c(C[*:1])cc(C[*:3])cc1C[*:2]; Tle = CC(C)(C)[C@H](N)C(=O)O; βAla = NCCC(=O)O; Sar = CNCC(=O)O
# Test system: HT-29 xenograft
# Experiment: In vivo efficacy of BT1718 in HT-29 xenograft
# Parameters: species or system Mus Musculus; key to Best response at 10 mg/kg: CR complete response; PR partial response
# Procedure: The objective of this study was to evaluate the in vivo anti-tumor efficacy of BT1718in treatment of HT1080, NCI-H292, NCI-H1975, MDA-MB-231, HCC1806, RPMI2650, HCT-15, HT-29 and SNU-16 xenograft in BALB/c nude mice.
# The HT1080, NCI-H292, NCI-H1975, MDA-MB-231, HCC1806, RPMI2650, HCT-15, HT-29 and SNU-16 tumor cells were maintained in vitro as a monolayer culture in medium supplemented with 10% heat inactivated fetal bovine serum at 37° C. in an […]. The tumor cells will be routinely subcultured twice weekly by trypsin-EDTA treatment. The cells growing in an exponential growth phase will be harvested and counted for tumor inoculation.
# Mouse was inoculated subcutaneously at the right flank with tumor cells for tumor development. The animals were randomized and treatment was started when the average tumor reaches certain volume for the efficacy study, the inoculating cell amounts and starting tumor size were shown as below in Table 9. The test article administration and the animal numbers in each group were shown in the experimental design in Table 10.
# All the procedures related to animal handling, care and the treatment in the study were performed according to the guidelines of the Association for Assessment and Accreditation of Laboratory Animal Care (AAALAC). At the time of routine monitoring, the animals were daily checked for any effects of tumor growth and treatments on normal behavior such as mobility, food and water consumption (by looking only), body weight gain/loss (body weights were measured every day), eye/hair matting and any other abnormal effect as stated in the protocol. Death and observed clinical signs were recorded on the basis of the numbers of animals within each subset.
# The major endpoint was to see if the tumor growth could be delayed or mice could be cured. Tumor size was measured three times weekly in two dimensions using a caliper, and the volume was expressed in mm^3 using the formula: V=0.5 a×b^2 where a and b are the long and short diameters of the tumor, respectively. The tumor size was then used for calculations of T/C value. The T/C value (in percent) is an indication of antitumor effectiveness; T and C are the mean volumes of the treated and control groups, respectively, on a given day.
# TGI was calculated for each group using the formula: TGI (%)=[1−(Ti−T0)/(Vi−V0)]×100; Ti is the average tumor volume of a treatment group on a given day, T0 is the average tumor volume of the treatment group on the day of treatment start, Vi is the average tumor volume of the vehicle control group on the same day with Ti, and V0 is the average tumor volume of the vehicle group on the day of treatment start.
# Summary statistics, including mean and the standard error of the mean (SEM), are provided for the tumor volume of each group at each time point.
# Statistical analysis of difference in tumor volume among the groups was conducted on the data obtained at the best therapeutic time point after the final dose.
# A one-way ANOVA was performed to compare tumor volume among groups, and when a significant F-statistics (a ratio of treatment variance to the error variance) was obtained, comparisons between groups were carried out with Games-Howell test. All data were analyzed using Prism. P<0.05 was considered to be statistically significant.
smiles,measurement,setting,value
COc1cc2cc(c1Cl)N(C)C(=O)C[C@H](OC(=O)[C@H](C)N(C)C(=O)CCSSC(C)CCC(=O)NCCC(=O)N(C)CC(=O)N(C)CC(=O)N(C)CC(=O)N(C)CC(=O)N(C)CC(=O)N(C)CC(=O)N(C)CC(=O)N(C)CC(=O)N(C)CC(=O)N(C)CC(=O)N[C@@H](C)C(=O)N[C@H]1CSCc3cc4cc(c3)CSC[C@H](NC(=O)[C@@H](C)NC(=O)[C@H](Cc3cccc5ccccc35)NC(=O)[C@H](CCC(=O)O)NC(=O)[C@H](CC(N)=O)NC(=O)[C@@H](C)NC1=O)C(=O)N[C@@H](CCC(=O)O)C(=O)N[C@@H](CC(=O)O)C(=O)N[C@@H](Cc1ccccc1)C(=O)N[C@@H](Cc1ccc(O)cc1)C(=O)N[C@@H](CC(=O)O)C(=O)N[C@@H](C(C)(C)C)C(=O)N[C@H](C(N)=O)CSC4)[C@]1(C)O[C@H]1[C@H](C)[C@@H]1C[C@@](O)(NC(=O)O1)[C@H](OC)/C=C/C=C(\C)C2 (stereo partly drawn) [BT1718] ({X1-βAla}-[Sar][Sar][Sar][Sar][Sar][Sar][Sar][Sar][Sar][Sar]AC[dA]NE[1Nal][dA]CEDFYD[Tle]C-NH2; linker 12-18-25 via TBMB (inferred)),tumor response,10 mg/kg biw,"significant tumor inhibition effect, but didn't cause tumor regression"
same,Body Weight,"1 mpk biw, day 0",23.0 ± 0.2 g
same,Tumor Volume,"1 mpk biw, day 0",160 ± 27 mm^3
same,Body Weight,"1 mpk biw, day 2",22.8 ± 0.2 g
same,Tumor Volume,"1 mpk biw, day 2",189 ± 18 mm^3
same,Body Weight,"1 mpk biw, day 4",22.3 ± 0.5 g
same,Tumor Volume,"1 mpk biw, day 4",203 ± 13 mm^3
same,Body Weight,"1 mpk biw, day 6",22.3 ± 0.5 g
same,Tumor Volume,"1 mpk biw, day 6",260 ± 18 mm^3
same,Body Weight,"1 mpk biw, day 8",22.3 ± 0.4 g
same,Tumor Volume,"1 mpk biw, day 8",273 ± 35 mm^3
same,Body Weight,"1 mpk biw, day 11",22.4 ± 0.7 g
same,Tumor Volume,"1 mpk biw, day 11",453 ± 45 mm^3
same,Body Weight,"1 mpk biw, day 13",22.3 ± 0.7 g
same,Tumor Volume,"1 mpk biw, day 13",533 ± 43 mm^3
same,Body Weight,"3 mpk biw, day 0",22.2 ± 0.2 g
same,Tumor Volume,"3 mpk biw, day 0",159 ± 36 mm^3
same,Body Weight,"3 mpk biw, day 2",22.1 ± 0.4 g
same,Tumor Volume,"3 mpk biw, day 2",178 ± 41 mm^3
same,Body Weight,"3 mpk biw, day 4",22.0 ± 0.5 g
same,Tumor Volume,"3 mpk biw, day 4",214 ± 51 mm^3
same,Body Weight,"3 mpk biw, day 6",22.4 ± 0.6 g
same,Tumor Volume,"3 mpk biw, day 6",268 ± 70 mm^3
same,Body Weight,"3 mpk biw, day 8",22.6 ± 0.6 g
same,Tumor Volume,"3 mpk biw, day 8",297 ± 87 mm^3
same,Body Weight,"3 mpk biw, day 11",22.0 ± 0.4 g
same,Tumor Volume,"3 mpk biw, day 11",472 ± 129 mm^3
same,Body Weight,"3 mpk biw, day 13",22.2 ± 0.3 g
same,Tumor Volume,"3 mpk biw, day 13",616 ± 145 mm^3
same,Body Weight,"10 mpk biw, day 0",24.6 ± 1.2 g
same,Tumor Volume,"10 mpk biw, day 0",164 ± 32 mm^3
same,Body Weight,"10 mpk biw, day 2",23.6 ± 1.2 g
same,Tumor Volume,"10 mpk biw, day 2",177 ± 28 mm^3
same,Body Weight,"10 mpk biw, day 4",22.1 ± 1.5 g
same,Tumor Volume,"10 mpk biw, day 4",195 ± 36 mm^3
same,Body Weight,"10 mpk biw, day 6",22.9 ± 1.5 g
same,Tumor Volume,"10 mpk biw, day 6",232 ± 54 mm^3
same,Body Weight,"10 mpk biw, day 8",21.2 ± 1.2 g
same,Tumor Volume,"10 mpk biw, day 8",198 ± 44 mm^3
same,Body Weight,"10 mpk biw, day 11",21.2 ± 1.7 g
same,Tumor Volume,"10 mpk biw, day 11",182 ± 46 mm^3
same,Body Weight,"10 mpk biw, day 13",21.7 ± 1.0 g
same,Tumor Volume,"10 mpk biw, day 13",146 ± 32 mm^3
same,Best response at 10 mg/kg,"HT-29, 10 mg/kg",PR
same,TGI,"HT-29, 1 mpk, biw, day 14",24.0%
same,Tumor Volume,"HT-29, 1 mpk, biw, day 14",533 ± 43 mm^3
same,TGI,"HT-29, 3 mpk, biw, day 14",6.8%
same,Tumor Volume,"HT-29, 3 mpk, biw, day 14",616 ± 145 mm^3
same,TGI,"HT-29, 10 mpk, biw, day 14",103.6%
same,Tumor Volume,"HT-29, 10 mpk, biw, day 14",146 ± 32 mm^3
same,Minimally Effective Dose IV BIW,"HT-29, dose leading to tumor-stasis",10 mg/kg
